“Also recorded” adds a separate entry of the source.
Experiments:
[1] = tested on: pain hypersensitivity; details: injected intrathecally, rodent models of chronic pain; listed as UNC3230; cited from earlier work
[2] = tested on: PIP5K1C and PIP4K2C; details: for PIP5K1C and PIP4K2C; cited from earlier work
[3] = tested on: DRG neurons; details: cited from earlier work
[4] = target: PIP5K1C (Homo sapiens, UniProt O60331); test: ATP competition studies using the mobility shift assay; format: biochemical; details: read-out: average Ki; two independent ATP competition studies
PIP5K1C, sequence (O60331 whole entry): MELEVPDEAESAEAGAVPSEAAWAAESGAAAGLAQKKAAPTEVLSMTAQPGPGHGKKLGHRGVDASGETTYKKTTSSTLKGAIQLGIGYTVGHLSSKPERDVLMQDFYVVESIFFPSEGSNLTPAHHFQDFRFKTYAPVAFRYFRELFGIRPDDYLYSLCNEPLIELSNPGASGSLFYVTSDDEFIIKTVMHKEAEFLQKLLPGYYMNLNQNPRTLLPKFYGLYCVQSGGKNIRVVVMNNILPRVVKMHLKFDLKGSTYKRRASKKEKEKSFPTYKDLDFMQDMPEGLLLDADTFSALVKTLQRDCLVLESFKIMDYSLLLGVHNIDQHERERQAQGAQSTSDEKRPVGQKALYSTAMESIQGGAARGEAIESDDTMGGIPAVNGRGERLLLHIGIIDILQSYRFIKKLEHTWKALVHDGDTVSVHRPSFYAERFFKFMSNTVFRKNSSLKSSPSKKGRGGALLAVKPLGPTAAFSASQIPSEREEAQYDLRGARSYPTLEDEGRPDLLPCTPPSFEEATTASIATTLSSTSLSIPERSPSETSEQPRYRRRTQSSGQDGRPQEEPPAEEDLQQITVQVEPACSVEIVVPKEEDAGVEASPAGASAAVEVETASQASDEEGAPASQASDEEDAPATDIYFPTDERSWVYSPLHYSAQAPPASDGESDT

- Ki [4]: 23 nM
Compound: NC(=O)c1nc(Nc2ccccc2)sc1NC(=O)C1CCCCC1 [Compound 1]
- effect on pain hypersensitivity / nociceptive sensitization [1]: reduce nociceptive sensitization; also recorded: attenuated pain hypersensitivity
- selectivity [2]: highly selective
- effect on PIP2 in DRG neurons [3]: reduced PIP2
